Measurements taken from patent US20040259159A1, “Role of LDL receptor protein-1 (LRP-1) in Alzheimer's disease” (priority 2000, published 2004).
Where a SMILES comes first, the peptide text is derived from it. The star is where a group is joined. Cbz = O=C(OCc1ccccc1)*

Key:
LRP-1 [1] = test: Pulse chase of [35S]-methionine labeled LRP-1 in human brain endothelial cells (half-life); type: cell-based
Method: Human BEC (4×10^5) were pulsed for 1 hr at 37° C. with 400 μCi of [35S]-methionine (greater than 1000 Ci/mmol; Perkin Elmer, Boston, Mass.) in methionine-free Dulbecco modified Eagle medium (GIBCO BRL, New York, N.Y.). Cells were chased at indicated times within 48 hr. Cell lysates were immunoprecipitated with anti-LRP-1 515 kDa α-chain specific IgG (8G1) on SDS-PAGE. The intensity of signal was quantified in pixels using Storm 860 Phosphoimager (Amersham Biosciences, Piscataway, N.J.).

[2] = Brain clearance model in mice: efflux of 125I-Aβ1-40 and 14C-inulin after intracerebral microinjection; type: in vivo, mice
Method: Male C57BL/6 wild-type mice, 8-10 weeks old and 9-10 months old, and male apoE knockout mice (apoE KO) on a C57BL/6 background (Taconic Farm, German-town, N.Y.), 8-10 weeks old and 9-10 months old, were studied.
A stainless steel guide cannula was implanted stereotaxically into the right caudate-putamen of anesthetized mice (60 mg/kg i.p. sodium pentobarbital). Coordinates for the tip of the cannula were 0.9 mm anterior and 1.9 mm lateral to bregma and 2.9 mm below the surface of the brain. The guide cannula and screw were fixed to the skull with methylmethacrylate (Plastics One, Roanoke, Va.) and a stylet introduced into the guide cannula.
(§1) For radioisotope injection, animals were re-anesthetized and an injector cannula (Plastic One, Roanoke, Va.) attached with 24G-TEFLON tubing (Small Parts, Miami Lake, Fla.) to a 10 μl gas-tight microsyringe (Hamilton, Reno, Nev.) was used. The amount of injected tracers was determined accurately using a micrometer to measure linear displacement of the syringe plunger in the precalibrated microsyringe. […] When the effects of different molecular reagents were tested, those were injected simultaneously with the radiolabeled peptides.
The analysis of radioactivity-disappearance curves from the brain was as reported (40, 43). The percentage of radioactivity remaining in the brain after microinjection was determined from eq. 1 as % Recovery in brain=100×(Nb/Ni) where, Nb is the radioactivity remaining in the brain at the end of the experiment and Ni is the radioactivity injected into the brain.
Inulin was studied as a metabolically inert polar reference marker that is neither transported across the BBB nor retained by the brain (40); its clearance rate, i.e., kinulin, provides a measure of the ISF bulk flow and is calculated as Nb(inulin)/Ni(inulin)=exp (−kinulin*t) (2).
For Aβ, there are two possible physiological pathways of elimination—direct transport across the BBB into the bloodstream and elimination by ISF bulk flow into the CSF and cervical lymphatics. It is also possible that Aβ is retained within the brain either by binding to its cell surface receptors directly as a free peptide and/or by binding to different transport proteins. Thus, according to the model, the fraction of Aβ remaining in the brain can be expressed as Nb(Aβ)/Ni(Aβ)=a1+a2*e^−k1*t (3), where a1=k2/(k1+k2) and a2=k1/(k1+k2), and k1 and k2 denote the fractional coefficients of total efflux from the brain and retention within the brain, respectively.
The fractional rate constant of Aβ efflux across the BBB from brain parenchyma can be calculated by knowing the fractional rate coefficient of total efflux of Aβ and inulin as k3=k1−k(inulin) (4), i.e., as the difference between the fractional rate constant for total efflux of Aβ and the fractional rate constant of inulin. The half-saturation concentration for the elimination of Aβ by transport across the BBB, k0.5, was calculated from the equation [1−(Nb/Ni)]*100=Clmax/(k0.5+Ni) (5), where Clmax represents the maximal efflux capacity for the saturable component of Aβ clearance across the BBB corrected for peptide clearance by the ISF flow. Clmax is expressed as a percentage of the injected dose, [1−(Nb/Ni)]×100, cleared from brain by saturable BBB transport over 30 min.
The MLAB mathematical modeling system (Civilized Software, Silver Spring, Md.) was used to fit the compartmental model to the disappearance curves or percent recovery data with inverse square weighting.

[3] = parameters: species or system mice; details: mouse, in vivo
Method: Brain, blood and CSF were sampled and prepared for radioactivity analysis. […] Brain, plasma and CSF samples were mixed with TCA (final concentration 10%), centrifuged at 14,000 rpm at 4° C. for 8 min to 10 min, and radioactivity in the precipitate, water and chloroform fractions determined in gamma counter (Wallac, Turku, Finland).
The supernatant was then lyophilized. The resulting material was dissolved in 0.005% TFA in water, pH 2, before injection onto a C4 column (Vydac, The Separation Group, Hesperia, Calif.). […] Column eluants were monitored at 214 nm. The eluted fractions were collected and counted.
For SDS-PAGE analysis, TCA precipitated samples were resuspended in 1% SDS, vortexed and incubated at 55° C. for 5 min, then neutralized, boiled for 3 min, homogenized and analyzed by electrophoresis in 10% Tris-tricine gels followed by fluorography.

LRP-1 [4] = test: LRP-1 levels in human brain endothelial cells exposed to Aβ (Western blot); type: cell-based; details: human BEC; for effect on LRP-1 levels (85 kDa β-subunit and 515 kDa α-subunit): greater than or equal to 1 μM, 48 hr; for effect on LRP-1 expression: low concentrations (less than 10 nM), within 48 hr
Method: Human brain endothelial cells (BEC) were isolated from rapid autopsies of neurologically normal young individuals after trauma. BECs were characterized and cultured, and then incubated with different Aβ isoforms at concentrations ranging from 1 nM to 20 μM within 48 hr. Cells were lysed and equal amounts of proteins (10 μg/mi) were separated by 10% denaturing polyacrylamide gel electrophoresis (SDS-PAGE), transferred onto nitrocellulose membrane, and probed with 5A6 (β-chain) or 8G1 (α-chain) human anti-LRP-1-specific IgGs. The relative density of each protein was determined by scanning densitometry using β-actin as an internal control.

[5] = tested on: brain clearance of ^125I-Aβ1-40; test: Effect of molecular reagents on brain clearance of 125I-Aβ1-40 at 30 min; type: in vivo, mice; details: 125I-Aβ1-40 12 nM
Method: as §1
The next set of experiments was designed to characterize the BBB transport system responsible for the transcytosis of Aβ. […] Clearance of ^14C-inulin was not affected by any of the studied molecular reagents.

With `CC(C)C[C@@H](C=O)NC(=O)[C@H](CC(C)C)NC(=O)[C@H](CC(C)C)NC(=O)OCc1ccccc1` [MG132] (Cbz-Leu-Leu-Leu-aldehyde) the “effect on t1/2 for LRP-1” value (LRP-1 [1]; MG132 20 μM, both control and Aβ-treated cells) was “increased”.

With “Aβ1-40: synthetic wild-type amyloid-β peptide of 40 amino acids; in clearance text it means the radioiodinated tracer” the “half-saturation (K0.5) of the BBB efflux transport system” value ([2]; mouse) was 15.3 nM, the “Retention in brain t½” value ([2]; mouse, in vivo) was 2.742 h and the “Transport by BBB t½” value ([2]; mouse, in vivo) was 0.577 ± 0.06 h. The “elimination rate from brain at less than 2 nM faster than at a load of 60 nM” value ([2]; mouse, in vivo) was 3.5 fold, the “rate k of clearance from the brain higher than that for inulin” value ([2]; mouse, in vivo) was 7.9 fold and the “reduction of brain clearance in 9-month old apoE KO mice” value ([2]; mouse, in vivo) was 46%. The “reduction of brain clearance in 9-month old wild-type mice” value ([2]; mouse, in vivo) was 55%, the “reduction of brain clearance in young (2-month old) apoE KO mice” value ([2]; mouse, in vivo) was 30% and the “dose remaining sequestered within the CNS” value ([2]; mouse, in vivo, 5 h) was 15.6%. The “Total Efflux t½ (half-time for brain efflux)” value ([2]; mouse, not told) was 0.417 h, the “difference in half-time of brain efflux versus inulin” value ([2]; mouse, not told) was 9.4 fold and the “degradation/metabolism in brain ISF prior to BBB transport” value [3] was “not observed”. The “effect on LRP-1 levels (85 kDa β-subunit and 515 kDa α-subunit)” value (from here on “effect on LRP-1 levels”) (LRP-1 [4]) was “progressively decreased” and the “effect on LRP-1 expression” value (LRP-1 [4]) was “do not alter significantly”.

With “Aβ1-42: synthetic wild-type amyloid-β peptide of 42 amino acids” the “effect on LRP-1 levels” value (LRP-1 [4]) was “progressively decreased”, the “effect on LRP-1 expression” value (LRP-1 [4]) was “do not alter significantly” and the “t1/2 for LRP-1 in the presence of peptide” value (LRP-1 [1]; 20 μM, control 9.6 hr, human BEC) was 6.4 h.

In the case of ^14C-Inulin, the “Retention in brain k” value ([2]; 60 nM) is reported as “None”, the “Retention in brain t½” value ([2]; 60 nM) is reported as “None” and the “Transport by BBB t½” value ([2]; 60 nM) is reported as “None”. For the same molecule, the “Total Efflux k” value ([2]; 60 nM 125I-Aβ1-40 with 14C-inulin, microinjection into caudate nucleus, mice) was 0.0029 ± 0.0002 min⁻¹, the “Total Efflux t½ (half-time for brain efflux)” value ([2]; 60 nM, microinjection into caudate nucleus, young mice) was 3.983 ± 0.208 h and the “Transport by ISF k” value ([2]; 60 nM, ISF bulk flow) was 0.0029 ± 0.0002 min⁻¹. For the same molecule, the “Transport by ISF t½” value ([2]; 60 nM, ISF bulk flow) was 3.98 ± 0.208 h and the “Transport by BBB k” value ([2]; 60 nM, k3=k1−k(inulin), eq. 4) was “None”.

With “mutant Aβ (Dutch/Iowa4o): synthetic Aβ peptide of 40 amino acids with Dutch/Iowa double mutation E22Q/D23N” the “effect on LRP-1 levels” value (LRP-1 [4]) was “progressively decreased” and the “effect on LRP-1 expression” value (LRP-1 [4]) was “do not alter significantly”.

B1: RAP: receptor associated protein, chaperone that antagonizes binding of LRP ligands to LRP-1 and LRP-2 (protein, UniProt P30533 35-357, looked up)
Alpha-2-macroglobulin …: YSREKNQPKPSPKRESGEEFRMEKLNQLWEKAQRLHLPPVRLAELHADLKIQERDELAWKKLKLDGLDEDGEKEARLIRNLNVILAKYGLDGKKDARQVTSNSLSGTQEDGLDDPRLEKLWHKAKTSGKFSGEELDKLWREFLHHKEKVHEYNVLLETLSRTEEIHENVISPSDLSDIKGSVLHSRHTELKEKLRSINQGLDRLRRVSHQGYSTEAEFEEPRVIDLWDLAQSANLTDKELEAFREELKHFEAKIEKHNHYQKQLEIAHEKLRHAESVGDGERVSRSREKHALLEGRTKELGYTVKKHLQDLSGRISRARHNEL
For B1, the “reduction in Aβ clearance from the brain” value ([5]; RAP 200 nM, versus vehicle) was 30% and the “decrease in Aβ clearance from the brain” value ([5]; RAP 5 μM) was 44%.
